Data: article PMC9873984, “Membrane cholesterol regulates inhibition and substrate transport by the glycine transporter, GlyT2” (Life Science Alliance, 2023)
Substitutions are numbered along the chain they refer to.

Columns and labels:
GlyT2 Y430F mutant = molecular target: T1, GlyT2 Y430F mutant (Homo sapiens, UniProt Q9Y345, Y430F); conditions: read-out: Glycine EC50; Y430F (TM5)
T1 sequence (Q9Y345 1-797 Y430F): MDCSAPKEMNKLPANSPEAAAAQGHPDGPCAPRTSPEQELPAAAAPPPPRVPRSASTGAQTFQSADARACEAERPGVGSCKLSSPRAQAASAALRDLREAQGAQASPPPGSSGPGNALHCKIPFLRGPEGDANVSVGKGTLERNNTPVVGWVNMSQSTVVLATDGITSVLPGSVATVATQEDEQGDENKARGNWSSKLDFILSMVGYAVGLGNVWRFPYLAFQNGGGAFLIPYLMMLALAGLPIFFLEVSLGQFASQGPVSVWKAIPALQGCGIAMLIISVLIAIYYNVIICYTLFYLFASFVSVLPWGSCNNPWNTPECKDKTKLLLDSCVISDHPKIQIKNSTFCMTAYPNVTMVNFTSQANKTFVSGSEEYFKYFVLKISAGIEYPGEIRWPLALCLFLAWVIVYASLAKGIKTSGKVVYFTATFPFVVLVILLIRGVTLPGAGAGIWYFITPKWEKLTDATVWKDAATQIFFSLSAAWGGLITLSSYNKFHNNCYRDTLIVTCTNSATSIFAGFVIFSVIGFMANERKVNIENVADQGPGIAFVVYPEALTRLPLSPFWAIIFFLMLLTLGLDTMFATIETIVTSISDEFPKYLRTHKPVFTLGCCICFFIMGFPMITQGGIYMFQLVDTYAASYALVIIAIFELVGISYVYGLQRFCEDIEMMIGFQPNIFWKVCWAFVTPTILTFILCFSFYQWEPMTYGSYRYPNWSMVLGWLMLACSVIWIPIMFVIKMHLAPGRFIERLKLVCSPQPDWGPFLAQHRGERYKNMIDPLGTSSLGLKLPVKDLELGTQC
Text: (§1) GlyT2a (referred to herein as GlyT2) was subcloned into the plasmid oocyte transcription vector (pOTV) for expression in Xenopus laevis oocytes. Oligonucleotide primers incorporating desired mutations were synthesized by Sigma-Aldrich and used to generate point mutations in the GlyT2 cDNA/pOTV construct using the Q5 site-directed mutagenesis kit (New England Biolabs [Genesearch]). Amplified PCR products were transformed into chemically competent E. coli cells and purified using the GeneJET Plasmid Miniprep Kit (Thermo Fisher Scientific). Purified plasmid DNA was sequence-verified by the Australian Genome Research Facility. pOTV constructs were linearized with the restriction enzyme SpeI (New England Biolabs [Genesearch]), and RNA was transcribed by T7 RNA polymerase using the mMESSAGE mMACHINE T7 kit (Thermo Fisher Scientific).
(§2) The transport activity of GlyT2 is an electrogenic process as it couples the transport of glycine to the co-transport of 3 Na^+ and 1 Cl^− and thus can be measured using two-electrode voltage-clamp electrophysiology. Oocytes expressing GlyTs were voltage-clamped at −60 mV, and glycine-induced whole-cell currents were measured using a GeneClamp 500 amplifier (Axon Instruments), and a PowerLab 2/26 chart recorder (ADInstruments) and LabChart Software (ADInstruments).
(§3) Functionality of WT and mutant GlyT2 transporters was assessed by applying increasing concentrations of glycine (1–3,000 µM) in ND96 until a stable current was achieved. Glycine concentrations were applied individually and completely removed from the system via washing with recording buffer before proceeding to the next concentration. EC50 values for each transporter were determined by fitting concentration–response data to the modified Michaelis–Menten equation: I=([Gly].Imax)/(EC50+[Gly]), where I is current in nA, [Gly] is the concentration of glycine, Imax is the current generated by a maximal concentration of glycine, and EC50 is the concentration of glycine that generates a half-maximal current.

GlyT2 Y430L mutant = molecular target: T2, GlyT2 Y430L mutant (Homo sapiens, UniProt Q9Y345, Y430L); conditions: read-out: Glycine EC50; Y430L (TM5)
T2 sequence (Q9Y345 1-797 Y430L): T1 sequence (Q9Y345 1-797 Y430F) with F430L
Text: as §1, §2, §3

## NCC(=O)O [Glycine, glycine]
GlyT2 Y430F mutant
  EC50: 12 µM
GlyT2 Y430L mutant
  EC50: 19 µM
